Key:
Assay type in all cases: in vivo
[1] = tested on: spring barley (Hordeum vulgare); assay: Test C pre-/postemergence plant response
How it was run: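 Formulated in a surfactant-containing non-phytotoxic solvent, compounds were tested under controlled growth conditions as preemergence and postemergence treatments. Ratings from 0 (no effect) to 100 (complete control) were assigned visually relative to controls 15 to 25 days later.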

[2] = tested on: canarygrass (Phalaris minor); assay: Test A pre-/postemergence plant response
How it was run: (§1)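 Soil: loam blended with sand. Formulation: non-phytotoxic solvent mixture plus surfactant, applied as preemergence directed soil spray and as postemergence spray. Scoring: visual, 0 no effect to 100 complete control, roughly 10 days post-treatment in greenhouse.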

[3] = tested on: blackgrass (Alopecurus myosuroides); assay: Test A pre-/postemergence plant response
How it was run: as §1

[4] = Preemergence, 8 g ai/ha, scale 0 to 100 (0 no effect, 100 complete control)
[5] = Preemergence, 16 g ai/ha, scale 0 to 100 (0 no effect, 100 complete control)
[6] = Preemergence, 31 g ai/ha, scale 0 to 100 (0 no effect, 100 complete control)
[7] = Preemergence, 62 g ai/ha, scale 0 to 100, 0 no effect, 100 complete control
[8] = Postemergence, 31 g ai/ha, 0 to 100 scale (0 no effect, 100 complete control)
[9] = Postemergence, 125 g ai/ha, 0 to 100 scale, 0 no effect, 100 complete control
[10] = Preemergence, 125 g ai/ha, 0 to 100 scale (0 no effect, 100 complete control)
[11] = Preemergence, 31 g ai/ha, 0 to 100 scale, 0 is no effect, 100 is complete control
[12] = Postemergence, 8 g ai/ha, scale 0 to 100, 0 no effect, 100 complete control
[13] = Postemergence, 16 g ai/ha, scale 0 to 100, 0 no effect, 100 complete control
[14] = Postemergence, 31 g ai/ha, scale 0 to 100, 0 no effect, 100 complete control
[15] = Postemergence, 62 g ai/ha, scale 0 to 100, 0 no effect, 100 complete control

Compound	Plant response rating, Barley, Spring [1, 4]	Plant response rating, Barley, Spring [1, 5]	Plant response rating, Barley, Spring [1, 6]	Plant response rating, Barley, Spring [1, 7]	Plant response rating, Canarygrass [2, 8]	Plant response rating, Canarygrass [2, 9]	Plant response rating, Canarygrass [2, 10]	Plant response rating, Blackgrass [3, 8]	Plant response rating, Blackgrass [3, 9]	Plant response rating, Blackgrass [3, 11]	Plant response rating, Blackgrass [3, 10]	Plant response rating, Canarygrass [2, 11]	Plant response rating, Barley, Spring [1, 12]	Plant response rating, Barley, Spring [1, 13]	Plant response rating, Barley, Spring [1, 14]	Plant response rating, Barley, Spring [1, 15]
C#CCOC(=O)Oc1cnn(C)c(=O)c1-n1nc(-c2ccc(Cl)cc2)cc1C [Compound 58]	0	0	10	75												
Cc1cc(-c2ccc(Cl)cc2)nn1-c1c(OC(=S)N(C)C)cnn(C)c1=O [Compound 69]					0	80	80	10	60	20	40					
COCc1cc(-c2ccc(Br)cc2)nn1-c1c(O)cnn(C)c1=O [Compound 68]					0	40	20	0	80	0	50	0				
Cc1cc(-c2ccc(Br)cc2)nn1-c1c(O)cn[nH]c1=O [Compound 78, 4-[3-(4-bromophenyl)-5-methyl-1H-pyrazol-1-yl]-5-hydroxy-3(2H)-pyridazinone]					40	70	100	90	100	0	100	0				
Cn1ncc(O)c(-c2nn(-c3ccc(Cl)cc3)cc2Cl)c1=O [Compound 28]	0	15	15	25												
Cc1nn(C)c(=O)c(-n2nc(-c3ccc(C(F)(F)F)cc3)cc2C)c1O [Compound 75, 5-hydroxy-2,6-dimethyl-4-[5-methyl-3-[4-(trifluoromethyl)phenyl]-1H-pyrazol-1-yl]-3(2H)-pyridazinone]					10	80	80	40	90	40	80	10				
Cc1nn(C)c(=O)c(-n2nc(-c3ccc(Br)cc3)cc2C)c1O [Compound 81]					60	100	90	100	100	70	100	50				
Cc1cn(-c2ccc(Cl)cc2)nc1-c1c(O)cnn(C)c1=O [Compound 30, 4-[1-(4-chlorophenyl)-4-methyl-1H-pyrazol-3-yl]-5-hydroxy-2-methyl-3(2H)-pyridazinone]	0	0	30	50												
Cc1cc(-c2ccc(Cl)cc2)nn1-c1c(OC(=O)OCC(C)C)cnn(C)c1=O [Compound 57]	0	0	20	40									0	20	30	40
CCc1cc(-c2ccc(F)cc2)nn1-c1c(O)cnn(C)c1=O [Compound 25]	0	0	0	0									0	0	0	
Cc1cc(-c2ccc(Cl)cc2)nn1-c1c(OS(=O)(=O)c2ccccc2[N+](=O)[O-])cnn(C)c1=O [Compound 51]	0	15	20	70												
CCc1cc(-c2ccc(Cl)c(Cl)c2)nn1-c1c(O)cnn(C)c1=O [Compound 20]													0	25	25	50
Cc1cc(-c2ccc(Br)cc2)nn1-c1c(OC(=O)C2CC2)cnn(C(=O)C2CC2)c1=O [Compound 80, 5-[3-(4-bromophenyl)-5-methyl-1H-pyrazol-1-yl]-1-(cyclopropylcarbonyl)-1,6-dihydro-6-oxo-4-pyridazinyl cyclopropanecarboxylate]					40	100	100	30	100	70	100	60				
Cc1cc(-c2ccc(Cl)cc2)nn1-c1c(OC(=O)c2ccccc2)cnn(C)c1=O [Compound 48]	0	15	30	80												
CCc1cc(-c2ccc(Cl)cc2)nn1-c1c(OC(=O)OC(C)C)cnn(C)c1=O [Compound 41]	0	65	75	90												
CCc1c(C)c(-c2ccc(Cl)cc2)nn1-c1c(O)cnn(C)c1=O [Compound 26, 4-[3-(4-chlorophenyl)-5-ethyl-4-methyl-1H-pyrazol-1-yl]-5-hydroxy-2-methyl-3(2H)-pyridazinone]	0	0	25	35									0	0	35	50
